{"source": "paper PMC5704298", "about": "(ACS Central Science, 2017)", "key": {"[1]": {"test_system": "ALK phosphorylation in NCI-H2228 and Karpas-299 cell lines", "experiment": "Immunoblot of ALK phosphorylation and downstream signaling", "format": "cell-based", "conditions": "2 h, dose-dependent"}, "[2]": {"test_system": "patients without treatment with other ALK inhibitors", "conditions": "phase I study, 24 patients, cited from earlier work"}}}
{"smiles": "Cc1cc(Nc2ncc(Cl)c(Nc3ccccc3S(=O)(=O)C(C)C)n2)c(OC(C)C)cc1C1CCNCC1", "note": "[Ceritinib]", "values": [{"measurement": "autophosphorylation of ALK; phosphorylation of AKT and STAT3 (immunoblot)", "setting": "[1]", "result": "can inhibit autophosphorylation of ALK"}]}
{"smiles": "CN1CCN(c2ccc(C(=O)Nc3n[nH]c4ccc(Cc5cc(F)cc(F)c5)cc34)c(NC3CCOCC3)c2)CC1", "note": "[entrectinib]", "values": [{"measurement": "ORR, ALK+ patients", "setting": "[2]; ALK+", "result": 57, "unit": "%"}, {"measurement": "ORR, NRTK1–3+ patients", "setting": "[2]; NRTK1–3+", "result": 100, "unit": "%"}, {"measurement": "ORR, ROS1+ patients", "setting": "[2]; ROS1+", "result": 85, "unit": "%"}]}
